According to PMC10860144, “Exploring the Dispersion and Electrostatic Components in Arene–Arene Interactions between Ligands and G4 DNA to Develop G4-Ligands” (Journal of Medicinal Chemistry, 2024):
Converted amounts (≈) assume the structure as drawn. “And” between values parts separate entries of the source, which are not always exact repeats. Equal values may be shown once.

Legend:
c-MYC Pu22 G4 DNA = test: Microscale thermophoresis (MST), c-MYC Pu22 G4 DNA; format: binding, human; settings: Cy5-labeled c-MYC Pu22 G4 DNA 25 nM; pH 7.4, 100 mM KCl; read-out: apparent Kd (MST)
Description: To evaluate the apparent binding affinities (Kd) for the compound series, we next used microscale thermophoresis (MST) with fluorescently labeled c-MYC Pu22 G4 DNA (Table S1). Overall, the measured MST binding results for compounds 2–11 corresponded well with the results from the FRET assay (Figures 2B and S3).
5′-Cy5 labeled G4 DNAs for this study were purchased from Eurofins Genomics. Stock solutions were prepared in water at 100 μM concentration. The sequences used are listed in Supporting Information Table S1. The G4 DNA sequences were folded in KCl buffer (10 mM phosphate, 100 mM KCl, pH 7.4) by heating at 95 °C for 5 min and then cooling to room temperature. All the experiments were performed in 10 mM phosphate pH 7.4, 100 mM KCl, and 0.05% Tween20. The labeled DNA concentration is held constant at 25 nM, and ligand concentration is varied depending on ligands Kd (16 1:3 dilutions). The samples were loaded into standard MST graded glass capillaries and initial fluorescence intensity of the capillary was measured using Monolith NT.115 (Nano Temper, Germany) with 20% LED power. The change in fluorescence with ligand’s concentrations were plotted in Excel and fitted through nonlinear equation to obtain the binding constants. […]
Microscale Thermophoresis (MST)
5'- Cy5 labelled G4 DNAs for this study were purchased from Eurofins Genomics. Stock solutions were prepared in water at […] concentration. The sequences used are listed in supplementary Table S1. The G4 DNA sequences were folded in KCl buffer (10 mM phosphate, 100 mM KCl, pH 7.4) by heating at 95 °C for 5 min and then cooling to room temperature. All the experiments were performed in 10 mM phosphate pH 7.4, 100 mM KCl, 0.05% Tween20. The labelled DNA concentration is held constant at 25 nM and ligand concentration is varied depending on ligands Kd (sixteen 1:3 dilutions). The samples were loaded into standard MST graded glass capillaries and initial fluorescence intensity of the capillary were measured using Monolith NT.115 (Nano Temper, Germany) with 20% LED power. The change in fluorescence with ligand's concentrations were plotted in Excel and fitted through non-linear equation to obtain the binding constants.
(1 picture or pasted object on this page, not shown here)

logD at pH 7.4 = format: physicochemical
Description: (§1) Physicochemical properties
(§2) The Physicochemical profiling (LogD, Solubility, Caco-2 cell permeability) was performed as previously
(§3) described.8 Cell viability was performed as described below.
(§4) Table S2. Pharmacokinetic Properties
(§5) Compound Structure logD, Solubility, Rat hepsa Human mics b

Solubility at pH 7.4 = format: physicochemical
Description: as §1, §2, §3, §4, §5

[1] = Intrinsic clearance in rat hepatocytes; format: in vitro ADME
Description: (§6) All compounds (2–11, 25–29) were screened for their logD and solubility at pH 7.4 and for their intrinsic clearance in rat hepatocytes and human microsomes (Table S2). […] Replacing the basic amine side chain to a methyl substituent in the quinazolines (25–29) still retained good solubility (134 to over 1000 μM) but increased clearance in both rat hepatocytes and human microsomes. The logD was low for compounds with a basic amine side chain (2–11) and increased slightly when the amine was replaced with a methyl (25–29). As expected, additional substituents also affected the logD with the chloro-substituents increasing logD the most.
(§7) a Intrinsic clearance in rat hepatocytes ((μL/min)/10^6 cells).b Intrinsic clearance in human microsomes (μL/min/mg). […]

[2] = Intrinsic clearance in human microsomes; format: in vitro ADME; settings: read-out: Human mics: intrinsic clearance in human microsomes
Description: as §6, §7

Pu24T c-MYC G4 structure = test: Kd for binding to the Pu24T c-MYC G4 structure (supplementary CSV); set-up: species or system human
Description: 5′-Cy5 labeled G4 DNAs for this study were purchased from Eurofins Genomics. Stock solutions were prepared in water at 100 μM concentration. The sequences used are listed in Supporting Information Table S1. The G4 DNA sequences were folded in KCl buffer (10 mM phosphate, 100 mM KCl, pH 7.4) by heating at 95 °C for 5 min and then cooling to room temperature. All the experiments were performed in 10 mM phosphate pH 7.4, 100 mM KCl, and 0.05% Tween20. The labeled DNA concentration is held constant at 25 nM, and ligand concentration is varied depending on ligands Kd (16 1:3 dilutions). The samples were loaded into standard MST graded glass capillaries and initial fluorescence intensity of the capillary was measured using Monolith NT.115 (Nano Temper, Germany) with 20% LED power. The change in fluorescence with ligand’s concentrations were plotted in Excel and fitted through nonlinear equation to obtain the binding constants.
The Supporting Information is available free of charge at https://pubs.acs.org/doi/10.1021/acs.jmedchem.3c02127. • Experimental procedures and data; assay data, computational results, and all cell data; NMR (^1H and ^13C) spectra for all compounds (with the exception of a few intermediates); and HPLC UV traces for the final compounds (PDF) • Molecular formula strings and Kd values for binding to the Pu24T c-MYC G4 structure (CSV)

[3] = test system: G4 structure on DNA template (PEPu24T); test: Taq polymerase stop (primer extension) assay, G4 template; format: biochemical; settings: compound 0.24 μM; compared to DMSO control
Text: To challenge all the synthesized compounds (2–11 and 25–29) in a more intricate context, we conducted a Taq polymerase stop assay to evaluate their capacity to impede DNA synthesis through G4 stabilization. In this assay, we compared the progress of the Taq DNA polymerase along two distinct DNA templates: one with a G4 structure (Figure 5) and another serving as a non-G4 control (Figure S21). If an external species (e.g., G4 ligand) binds and stabilizes the G4 structure, the polymerase will be partially halted. The extent of this DNA polymerase stalling is dependent on the ability of the compound to stabilize the G4 on the DNA template. The increased G4 stabilization can be detected as a reduction in the amount of newly synthesized DNA that has reached the end of the DNA template (full-length/end-product). Analysis of these shorter terminated DNA products will give information about the precise location of the DNA polymerase stalling with a single nucleotide resolution. If the ligand imposes little to no stabilization or binding, the G4 is readily resolved by the DNA polymerase, and no difference in the amount of DNA end-product can therefore be expected upon the addition of the compound.
Templates for the primer extension assay were created by annealing 25 nt TET labeled primer (1 μM final concentration) to either PEPu24T or a mutated sequence not forming a G4, PEPu24T mut, (1.25 μM final concentration) in 100 mM KCl by heating to 95 °C for 5 min and slowly cooling to room temperature. […] Compounds were added in the indicated concentration and incubated on ice for 10 min before starting the reaction by adding dNTPs (100 μM final concentration) to the reaction and transferring it to 37 °C. Reactions were stopped after 15 min by addition of 10 μL of formamide loading buffer (0.5% SDS, 25 mM EDTA, 95% v/v formamide and xylene-cyanol). Samples were then loaded on a 12% polyacrylamide gel containing 7 M urea and 25% formamide and imaged using an Amersham Typhoon. The images were quantified using ImageJ 1.53e software, and the percentage of full-length product compared to a sample without compound was calculated.
Templates for the primer extension assay were created by annealing 25nt TET labelled primer (1 µM final concentration) to either PEPu24T or a mutated sequence not forming a G4, PEPu24T mut, (1.25 µM final concentration) in 100 mM KCl by heating to 95 °C for 5 min and slowly cooling to room temperature. The reaction mixture (10 µl) contained 1X Taq Buffer with KCl (10 mM Tris-HCl pH 8.8, 50 mM KCl, detergent), 25 mM MgCl2, […]
[…] Compounds were added in the indicated concentration and incubated on ice for 10 min before starting the reaction by adding dNTPs (100 µM final concentration) to the reaction and transferring it to 37 °C. Reactions were stopped after 15 min by addition of 10 µl of formamide loading buffer (0,5% SDS, 25 mM EDTA, 95% v/v formamide and xylene-cyanol). Samples were then loaded on a 12% polyacrylamide gel containing 7 M urea and 25% formamide and imaged using an Amersham™ Typhoon™.
The images were quantified using ImageJ 1.53e software and the percentage of full-length product compared to a sample without compound was calculated. […]

SMILES | Kd (c-MYC Pu22 G4 DNA) | logD (logD at pH 7.4) | solubility (Solubility at pH 7.4) [µM] | Rat heps: intrinsic clearance in rat hepatocytes [1] | microsomal CLint [2] [µL/min/mg] | Kd (Pu24T c-MYC G4 structure) [nM] | full-length DNA product [3]
Cc1cc(C)nc(Nc2nc(C)c3cc(Cl)ccc3n2)n1 [Compound 29, 6-Chloro-N-(4,6-dimethylpyrimidin-2-yl)-4-methylquinazolin-2-amine] | > 15000 nM | 2.4 | 134 (≈ 40.2 µg/mL) | 9 (μL/min)/106 cells | 56 | > 15000 | –
Cc1ccc2nc(Nc3nc(C)cc(NCCCN(C)C)n3)nc(C)c2c1 [Compound 4, N4-(3-(Dimethylamino)propyl)-N2-(4,6-dimethylquinazolin-2-yl)-6-methylpyrimidine-2,4-diamine] | 100 nM | 0.4 | > 1000 | < 1 (μL/min)/106 cells | < 3 | 100 ± 10 | about 30%
Cc1cc(NCCCN(C)C)nc(Nc2nc3cc(C)c(C)cc3nc2C)n1 [Compound 10, N4-(3-(Dimethylamino)propyl)-6-methyl-N2-(3,6,7-trimethylquinoxalin-2-yl)pyrimidine-2,4-diamine] | 2300 nM and 2260 nM | 1.4 | 838 (≈ 318 µg/mL) | 19 (μL/min)/106 cells | < 3 | 2300 ± 500 | –
Cc1cc(NCCCN(C)C)nc(Nc2nc3ccccc3nc2C)n1 [Compound 9, N4-(3-(Dimethylamino)propyl)-6-methyl-N2-(3-methylquinoxalin-2-yl)pyrimidine-2,4-diamine] | > 10000 nM | 0.5 | 871 (≈ 306 µg/mL) | 17 (μL/min)/106 cells | < 3 | > 10000 | –
Cc1cc(NCCCN(C)C)nc(Nc2nc3cc(Cl)c(Cl)cc3nc2C)n1 [Compound 11, N2-(6,7-Dichloro-3-methylquinoxalin-2-yl)-N4-(3-(dimethylamino)propyl)-6-methylpyrimidine-2,4-diamine] | 3900 nM and 3850 nM | 2.3 | 646 (≈ 272 µg/mL) | 6 (μL/min)/106 cells | < 3 | 3900 ± 700 | –
Cc1cc(NCCCN(C)C)nc(Nc2nc(C)c3ccccc3n2)n1 [Compound 3, N4-(3-(Dimethylamino)propyl)-6-methyl-N2-(4-methylquinazolin-2-yl)pyrimidine-2,4-diamine] | 150 nM | 0 | 858 (≈ 302 µg/mL) | 4 (μL/min)/106 cells | < 3 | 150 ± 10 | ~45%
Cc1ccc2nc(Nc3nc(C)cc(C)n3)nc(C)c2c1 [Compound 26, N-(4,6-Dimethylpyrimidin-2-yl)-4,6-dimethylquinazolin-2-amine] | 3300 nM | 2.2 | 951 (≈ 266 µg/mL) | 20 (μL/min)/106 cells | 84 | 3300 ± 300 | –
Cc1cc(NCCCN(C)C)nc(Nc2nc(C)c3cc(Cl)ccc3n2)n1 [Compound 7, N2-(6-Chloro-4-methylquinazolin-2-yl)-N4-(3-(dimethylamino)propyl)-6-methylpyrimidine-2,4-diamine] | 170 nM | 0.9 | 990 (≈ 382 µg/mL) | 1 (μL/min)/106 cells | < 3 | 170 ± 20 | about 30%
COc1ccc2nc(Nc3nc(C)cc(NCCCN(C)C)n3)nc(C)c2c1 [Compound 6, N4-(3-(Dimethylamino)propyl)-N2-(6-methoxy-4-methylquinazolin-2-yl)-6-methylpyrimidine-2,4-diamine] | 90 nM | 0.1 | > 1000 | < 1 (μL/min)/106 cells | < 3 | 90 ± 10 | about 30%
Cc1cc(C)nc(Nc2nc(C)c3ccccc3n2)n1 [Compound 25, N-(4,6-Dimethylpyrimidin-2-yl)-4-methylquinazolin-2-amine] | > 15000 nM | 1.8 | > 1000 | 17 (μL/min)/106 cells | 71 | > 15000 | –
COc1ccc2nc(Nc3nc(C)cc(C)n3)nc(C)c2c1 [Compound 28, N-(4,6-Dimethylpyrimidin-2-yl)-6-methoxy-4-methylquinazolin-2-amine] | 3600 nM | 1.9 | 271 (≈ 80 µg/mL) | 34 (μL/min)/106 cells | 22 | 3600 ± 700 | –
